Assay results published in patent US11807644B2 (PMV Pharmaceuticals, Inc., priority 2020, dated 2023).

Molecular target: T1, recombinant His-tag Y220C p53 DBD protein (Homo sapiens, UniProt P04637, Y220C)
T1 construct: recombinant His-tag Y220C p53 DBD protein (amino acids #˜94-312)
Assay: In vitro DNA binding activity assay (TR-FRET): binding of His-tag Y220C p53 DBD to biotin-labeled consensus DNA
Type: biochemical
Conditions: SC150 = concentration to increase DNA binding by […], His-tag Y220C p53 DBD, biotin-labeled consensus DNA

Row | SMILES | Y220C SC150 (μM)
1 | CN1CC[C@@H](Nc2cccc3c2cc(-c2noc(CNC(=O)c4cn(CCF)cn4)n2)n3CC(F)(F)F)[C@@H](F)C1 [Compound 306B, N-{[3-(4-{[(3S,4R)-3-fluoro-1-methylpiperidin-4-yl]amino}-1-(2,2,2-trifluoroethyl)-1H-indol-2-yl)-1,2,4-oxadiazol-5-yl]methyl}-1-(2-fluoroethyl)-1H-imidazole-4-carboxamide] | * (* = 0 μM ≤ SC150 < 0.1 μM)
2 | CN1CC[C@@H](Nc2cccc3c2cc(-c2noc(CNC(=O)c4cnn(-c5ccccc5)c4)n2)n3CC(F)(F)F)[C@@H](F)C1 [Compound 308B, N-{[3-(4-{1[(3S,4R)-3-fluoro-1-methylpiperidin-4-yl]amino}-1-(2,2,2-trifluoroethyl)-1H-indol-2-yl)-1,2,4-oxadiazol-5-yl]methyl}-1-phenyl-1H-pyrazole-4-carboxamide] | * (* = 0 μM ≤ SC150 < 0.1 μM)
3 | CN1CC[C@@H](Nc2cccc3c2cc(-c2noc(CNC(=O)c4cncn4-c4ccccc4)n2)n3CC(F)(F)F)[C@@H](F)C1 [Compound 309B, N-{[3-(4-{[(3S,4R)-3-fluoro-1-methylpiperidin-4-yl]amino)-1-(2,2,2-trifluoroethyl)-1H-indol-2-yl)-1,2,4-oxadiazol-5-yl]methyl}-1-phenyl-1H-imidazole-5-carboxamide] | * (* = 0 μM ≤ SC150 < 0.1 μM)
4 | CN1CC[C@@H](Nc2cccc3c2cc(-c2noc(CNC(=O)c4cn(CC(F)F)cn4)n2)n3CC(F)(F)F)[C@@H](F)C1 [Compound 310B, 1-(2,2-difluoroethyl)-N-{[3-(4-{[(3S,4R)-3-fluoro-1-methylpiperidin-4-yl]amino}-1-(2,2,2-trifluoroethyl)-1H-indol-2-yl)-1,2,4-oxadiazol-5-yl]methyl}-1H-imidazole-4-carboxamide] | * (* = 0 μM ≤ SC150 < 0.1 μM)
5 | Cc1nn(C(C)C)cc1C(=O)NCc1nc(-c2cc3c(N[C@@H]4CCN(C)C[C@@H]4F)cccc3n2CC(F)(F)F)no1 [Compound 311B, N-{[3-(4-{[(3S,4R)-3-fluoro-1-methylpiperidin-4-yl]amino}-1-(2,2,2-trifluoroethyl)-1H-indol-2-yl)-1,2,4-oxadiazol-5-yl]methyl}-3-methyl-1-(propan-2-yl)-1H-pyrazole-4-carboxamide] | * (* = 0 μM ≤ SC150 < 0.1 μM)
6 | CN1CC[C@@H](Nc2cccc3c2cc(-c2noc(CNC(=O)c4cnn(C5CCCC5)c4)n2)n3CC(F)(F)F)[C@@H](F)C1 [Compound 312B, 1-cyclopentyl-N-{[3-(4-{[(3S,4R)-3-fluoro-1-methylpiperidin-4-yl]amino}-1-(2,2,2-trifluoroethyl)-1H-indol-2-yl)-1,2,4-oxadiazol-5-yl]methyl}-1H-pyrazole-4-carboxamide] | * (* = 0 μM ≤ SC150 < 0.1 μM)
7 | CCN1CC[C@@H](Nc2cccc3c2cc(-c2noc(CNC(=O)c4cnn(C5CCOC5)c4)n2)n3CC(F)(F)F)[C@@H](F)C1 (stereo partly drawn) [Compound 314B, N-{[3-(4-{[(3S,4R)-1-ethyl-3-fluoropiperidin-4-yl]amino}-1-(2,2,2-trifluoroethyl)-1H-indol-2-yl)-1,2,4-oxadiazol-5-yl]methyl}-1-(oxolan-3-yl)-1H-pyrazole-4-carboxamide] | * (* = 0 μM ≤ SC150 < 0.1 μM)
8 | CC(C)N1CC[C@@H](Nc2cccc3c2cc(-c2noc(CNC(=O)c4cnn(C(C)(C)C)c4)n2)n3CC(F)(F)F)[C@@H](F)C1 [Compound 316B, 1-tert-butyl-N-{[3-(4-{[(3S,4R)-3-fluoro-1-(propan-2-yl)piperidin-4-yl]amino}-1-(2,2,2-trifluoroethyl)-1H-indol-2-yl)-1,2,4-oxadiazol-5-yl]methyl}-1H-pyrazole-4-carboxamide] | * (* = 0 μM ≤ SC150 < 0.1 μM)
9 | CC(C)N1CC[C@@H](Nc2cccc3c2cc(-c2noc(CNC(=O)c4ccn(C(C)(C)C)c4)n2)n3CC(F)(F)F)[C@@H](F)C1 [Compound 317B, 1-tert-butyl-N-{[3-(4-{[(3S,4R)-3-fluoro-1-(propan-2-yl)piperidin-4-yl]amino}-1-(2,2,2-trifluoroethyl)-1H-indol-2-yl)-1,2,4-oxadiazol-5-yl]methyl}-1H-pyrrole-3-carboxamide] | * (* = 0 μM ≤ SC150 < 0.1 μM)
10 | CC(C)N1CC[C@@H](Nc2cccc3c2cc(-c2noc(CNC(=O)c4cn(C(C)(C)C)cn4)n2)n3CC(F)(F)F)[C@@H](F)C1 [Compound 318B, 1-tert-butyl-N-{[3-(4-{[(3S,4R)-3-fluoro-1-(propan-2-yl)piperidin-4-yl]amino}-1-(2,2,2-trifluoroethyl)-1H-indol-2-yl)-1,2,4-oxadiazol-5-yl]methyl}-1H-imidazole-4-carboxamide] | * (* = 0 μM ≤ SC150 < 0.1 μM)
11 | CN1CC[C@@H](Nc2cccc3c2cc(-c2noc(CNC(=O)c4ccn(C5CCCC5)c4)n2)n3CC(F)(F)F)[C@@H](F)C1 [Compound 319B, 1-cyclopentyl-N-{[3-(4-{[(3S,4R)-3-fluoro-1-methylpiperidin-4-yl]amino}-1-(2,2,2-trifluoroethyl)-1H-indol-2-yl)-1,2,4-oxadiazol-5-yl]methyl}-1H-pyrrole-3-carboxamide] | * (* = 0 μM ≤ SC150 < 0.1 μM)
12 | CCN1CC[C@@H](Nc2cccc3c2cc(-c2noc(CNC(=O)c4ccn(C5CCCC5)c4)n2)n3CC(F)(F)F)[C@@H](F)C1 [Compound 320B, 1-cyclopentyl-N-{[3-(4-{[(3S,4R)-1-ethyl-3-fluoropiperidin-4-yl]amino}-1-(2,2,2-trifluoroethyl)-1H-indol-2-yl)-1,2,4-oxadiazol-5-yl]methyl}-1H-pyrrole-3-carboxamide] | * (* = 0 μM ≤ SC150 < 0.1 μM)
13 | CN1CC[C@@H](Nc2cccc3c2cc(-c2noc(CNC(=O)c4cnn(C5CCOC5)c4)n2)n3CC(F)(F)F)[C@@H](F)C1 (stereo partly drawn) [Compound 321B, N-{[3-(4-{[(3S,4R)-3-fluoro-1-methylpiperidin-4-yl]amino}-1-(2,2,2-trifluoroethyl)-1H-indol-2-yl)-1,2,4-oxadiazol-5-yl]methyl}-1-(oxolan-3-yl)-1H-pyrazole-4-carboxamide] | * (* = 0 μM ≤ SC150 < 0.1 μM)
14 | Cc1c(C(=O)NCc2nc(-c3cc4c(N[C@@H]5CCN(C)C[C@@H]5F)cccc4n3CC(F)(F)F)no2)cnn1C(C)(C)C [Compound 322B, 1-tert-butyl-N-{[3-(4-{[(3S,4R)-3-fluoro-1-methylpiperidin-4-yl]amino}-1-(2,2,2-trifluoroethyl)-1H-indol-2-yl)-1,2,4-oxadiazol-5-yl]methyl}-5-methyl-1H-pyrazole-4-carboxamide] | * (* = 0 μM ≤ SC150 < 0.1 μM)
15 | CN1CC[C@@H](Nc2cccc3c2cc(-c2noc(CNC(=O)c4ccn(C5CCOC5)c4)n2)n3CC(F)(F)F)[C@@H](F)C1 (stereo partly drawn) [Compound 323B, N-{[3-(4-{[(3S,4R)-3-fluoro-1-methylpiperidin-4-yl]amino}-1-(2,2,2-trifluoroethyl)-1H-indol-2-yl)-1,2,4-oxadiazol-5-yl]methyl}-1-(oxolan-3-yl)-1H-pyrrole-3-carboxamide] | * (* = 0 μM ≤ SC150 < 0.1 μM)
16 | CCN1CC[C@@H](Nc2cccc3c2cc(-c2noc(CNC(=O)c4ccn(C5CCOC5)c4)n2)n3CC(F)(F)F)[C@@H](F)C1 (stereo partly drawn) [Compound 324B, N-{[3-(4-{[(3S,4R)-1-ethyl-3-fluoropiperidin-4-yl]amino}-1-(2,2,2-trifluoroethyl)-1H-indol-2-yl)-1,2,4-oxadiazol-5-yl]methyl}-1-(oxolan-3-yl)-1H-pyrrole-3-carboxamide] | * (* = 0 μM ≤ SC150 < 0.1 μM)
17 | CN1CC[C@@H](Nc2cccc3c2cc(-c2noc(CNC(=O)c4cnn(C5CCOCC5)c4)n2)n3CC(F)(F)F)[C@@H](F)C1 [Compound 325B, N-{[3-(4-{[(3S,4R)-3-fluoro-1-methylpiperidin-4-yl]amino}-1-(2,2,2-trifluoroethyl)-1H-indol-2-yl)-1,2,4-oxadiazol-5-yl]methyl}-1-(oxan-4-yl)-1H-pyrazole-4-carboxamide] | * (* = 0 μM ≤ SC150 < 0.1 μM)
18 | CN1CC[C@@H](Nc2cccc3c2cc(-c2noc(CNC(=O)c4cnn(C5CCCCC5)c4)n2)n3CC(F)(F)F)[C@@H](F)C1 [Compound 326B, 1-cyclohexyl-N-{[3-(4-{[(3S,4R)-3-fluoro-1-methylpiperidin-4-yl]amino}-1-(2,2,2-trifluoroethyl)-1H-indol-2-yl)-1,2,4-oxadiazol-5-yl]methyl}-1H-pyrazole-4-carboxamide] | * (* = 0 μM ≤ SC150 < 0.1 μM)
19 | CN1CC[C@@H](Nc2cccc3c2cc(-c2noc(CNC(=O)c4cn(C5CC5)cn4)n2)n3CC(F)(F)F)[C@@H](F)C1 [Compound 327B, 1-cyclopropyl-N-{[3-(4-{[(3S,4R)-3-fluoro-1-methylpiperidin-4-yl]amino}-1-(2,2,2-trifluoroethyl)-1H-indol-2-yl)-1,2,4-oxadiazol-5-yl]methyl}-1H-imidazole-4-carboxamide] | * (* = 0 μM ≤ SC150 < 0.1 μM)
20 | CC(C)(C)n1ccc(C(=O)NCc2nc(-c3cc4c(NC5CCC(F)(F)CC5)cccc4n3CC(F)(F)F)no2)c1 [Compound 328B, 1-tert-butyl-N-[(3-{4-[(4,4-difluorocyclohexyl)amino]-1-(2,2,2-trifluoroethyl)-1H-indol-2-yl}-1,2,4-oxadiazol-5-yl)methyl]-1H-pyrrole-3-carboxamide] | * (* = 0 μM ≤ SC150 < 0.1 μM)
21 | CC(C)(C)n1cnc(C(=O)NCc2nc(-c3cc4c(N[C@@H]5CCN(C6CC6)C[C@@H]5F)cccc4n3CC(F)(F)F)no2)c1 [Compound 329B] | * (* = 0 μM ≤ SC150 < 0.1 μM)
22 | CC(C)(C)n1ccc(C(=O)NCc2nc(-c3cc4c(N[C@@H]5CCN(C6CC6)C[C@@H]5F)cccc4n3CC(F)(F)F)no2)c1 [Compound 330B, 1-tert-butyl-N-{[3-(4-{[(3S,4R)-1-cyclopropyl-3-fluoropiperidin-4-yl]amino}-1-(2,2,2-trifluoroethyl)-1H-indol-2-yl)-1,2,4-oxadiazol-5-yl]methyl}-1H-pyrrole-3-carboxamide] | * (* = 0 μM ≤ SC150 < 0.1 μM)
